Measurements reported in PMC3495175 (Bioorganic & medicinal chemistry, 2012).

Experiments:
MtMetAP1c = MtMetAP1c (Mycobacterium tuberculosis, UniProt P9WK19); assay: MtMetAP1c coupled enzyme assay; assay type: biochemical; settings: for IC50: IC50 (µM), MtMetAP 1c, 100 nM enzyme
MtMetAP1a = MtMetAP1a (Mycobacterium tuberculosis, UniProt P9WK21); assay: MtMetAP1a coupled enzyme assay; assay type: biochemical; settings: for IC50: IC50 (µM), MtMetAP 1a, 200 nM enzyme; for Inhibition of MtMetAP1a (in words): both metalloforms (Co2+, Mn2+)
Chain of MtMetAP1a (P9WK21 whole entry): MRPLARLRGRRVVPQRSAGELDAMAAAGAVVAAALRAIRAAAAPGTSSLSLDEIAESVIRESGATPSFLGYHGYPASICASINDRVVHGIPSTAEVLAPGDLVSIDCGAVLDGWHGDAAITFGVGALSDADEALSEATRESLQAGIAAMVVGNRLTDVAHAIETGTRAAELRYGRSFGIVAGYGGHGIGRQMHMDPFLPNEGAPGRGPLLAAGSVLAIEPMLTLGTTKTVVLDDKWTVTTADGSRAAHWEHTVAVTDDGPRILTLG

[1] = Mn2+, Mn2+ cofactor (10 µM MnCl2)
[2] = Co2+, Co2+ cofactor (10 µM CoCl2)

Chain of MtMetAP1c (P9WK19 whole entry): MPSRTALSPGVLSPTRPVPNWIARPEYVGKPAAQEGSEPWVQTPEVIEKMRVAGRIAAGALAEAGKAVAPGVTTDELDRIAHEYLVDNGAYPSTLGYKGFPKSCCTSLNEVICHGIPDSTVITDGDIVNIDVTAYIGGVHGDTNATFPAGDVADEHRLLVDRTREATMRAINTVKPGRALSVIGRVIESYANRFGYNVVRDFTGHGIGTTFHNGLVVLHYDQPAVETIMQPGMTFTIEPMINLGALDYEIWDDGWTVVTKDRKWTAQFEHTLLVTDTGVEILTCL

SMILES | IC50 (MtMetAP1c; [1]) | IC50 (MtMetAP1c; [2]) | IC50 (MtMetAP1a; [2]) | IC50 (MtMetAP1a; [1]) | Inhibition of MtMetAP1c (in words) (MtMetAP1c) | Inhibition of MtMetAP1a (in words) (MtMetAP1a)
CN(C)/C=N/c1nc2c(s1)CCc1ccccc1-2 [3a] | > 50 µM |  |  |  |  | 
Nc1nc2c(s1)CCc1ccccc1-2 [3n, reference compound] | > 50 µM | > 50 µM | > 50 µM | > 50 µM |  | 
COc1ccc2c(c1)CCc1sc(N)nc1-2 [3o, reference compound] | > 50 µM | > 50 µM | > 50 µM | > 50 µM |  | 
COc1ccc2c(c1)CCc1sc(NC(C)=O)nc1-2 [3p, reference compound] | > 50 µM | > 50 µM | > 50 µM | > 50 µM |  | 
CCCCCCCCC(=O)Nc1nc2c(s1)CCc1ccccc1-2 [3q, reference compound] | > 50 µM | > 50 µM | > 50 µM | > 50 µM |  | 
CCCCCCCCC(=O)Nc1nc2c(s1)CCc1cc(OC)ccc1-2 [3r, reference compound] | > 50 µM | > 50 µM | > 50 µM | > 50 µM |  | 
COc1ccc2c(c1)CCc1sc(NC(=O)[C@H](C)O)nc1-2 [3s, (S)-2-Hydroxy-N-(7-methoxy-4H,5H-naphtho[1,2-d]thiazol-2-yl)propanamide] | > 50 µM | > 50 µM | > 50 µM | > 50 µM |  | 
COc1ccc2c(c1)CCc1sc(/N=C/c3ccco3)nc1-2 [3t] | > 50 µM | > 50 µM | > 50 µM | > 50 µM |  | 
COc1ccc2c(c1)CCc1sc(NCc3ccco3)nc1-2 [3u, N-(Furan-2-ylmethyl)-7-methoxy-4H,5H-naphtho[1,2-d]thiazol-2-amine] | > 50 µM | > 50 µM | > 50 µM | > 50 µM |  | 
COc1ccc2c(c1)CCc1sc(/N=C/c3ccccc3O)nc1-2 [3v] | > 50 µM | > 50 µM | > 50 µM | > 50 µM |  | 
O/N=C\Nc1nc2c(s1)CCc1ccccc1-2 [4a] | > 50 µM |  |  | > 50 µM |  | 
COc1ccc2c(c1)-c1nc(NC=NO)sc1CC2 [4b, N'-hydroxy-N-(8-methoxy-4H,5H-naphtho[1,2-d]thiazol-2-yl)methanimidamide] |  |  |  | > 50 µM |  | 
COc1ccc2c(c1)CCc1sc(N/C=N\O)nc1-2 [4c, N'-hydroxy-N-(7-methoxy-4H,5H-naphtho[1,2-d]thiazol-2-yl)methanimidamide] | > 50 µM |  |  | > 50 µM |  | 
COc1cc2c(cc1OC)-c1nc(N/C=N\O)sc1CC2 [4e] | > 50 µM |  |  |  |  | 
O/N=C\Nc1nc2c(s1)CCc1cc3c(cc1-2)OCO3 [4f] |  |  |  | > 20 µM |  | 
COc1ccc2c(c1)OCc1sc(N/C=N\O)nc1-2 [4g] | > 50 µM | > 50 µM |  |  | did not inhibit | moderate inhibition
O/N=C\Nc1nc2c(s1)COc1cc3c(cc1-2)OCO3 [4h] |  |  |  | > 10 µM |  | 
COc1ccc2c(c1)OC(c1ccccc1)c1sc(N/C=N\O)nc1-2 (stereo not shown) [4i] | > 50 µM | > 50 µM |  |  | did not inhibit | moderate inhibition
O/N=C\Nc1nc2c(s1)CCCc1cc3c(cc1-2)OCO3 [4j] |  |  |  | > 50 µM |  | 
COc1ccc2c(c1)Cc1sc(N/C=N\O)nc1-2 [4l] | > 50 µM | > 50 µM | > 50 µM | > 50 µM |  | 
COc1ccc(-c2csc(N/C=N\O)n2)cc1OC [4m] |  |  | > 20 µM | > 20 µM | moderate potency | 
